Results published in US8648066B2 (Exelixis, Inc., priority 2009, dated 2014).
pIC50: −log10 of the molar value.

molecular target: mTOR/GbL/Raptor (mTORC1) (Homo sapiens, UniProt P42345); test: mTOR/GbL/Raptor (mTORC1) ELISA assay; format: biochemical; conditions: phosphorylation of 4E-BP1; 0.2 nM mTORC1, 10 μM ATP; read-out: IC50 in this assay (mTORC1 ELISA)
Method in brief: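 Human mTORC1 (0.2 nM) phosphorylated 50 nM His-tagged 4E-BP1 with 10 µM ATP in HEPES pH 7.2 containing 10 mM MnCl2, 120 min at ambient temperature. Substrate was captured on Ni-chelate plates; phospho-4E-BP1 was detected by primary antibody and HRP secondary with luminescence.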

| SMILES | pIC50 |
| --- | --- |
| Cc1c(NCCC2CCCN2C)ncnc1N1CCOc2ccc(-c3cnc4nc(C5CC5)[nH]c4c3)cc2C1 (centres unmarked) [Example 534, 6-[7-(2-cyclopropyl-1H-imidazo[4,5-b]pyridin-6-yl)-2,3-dihydro-1,4-benzoxazepin-4(5H)-yl]-5-methyl-N-[2-(1-methylpyrrolidin-2-yl)ethyl]pyrimidin-4-amine] | 5.70 to 6.00 |
| Cc1c(N2CCOc3ccc(-c4cnc5nc(C6CC6)[nH]c5c4)cc3C2)ncnc1N(C)[C@@H](C)c1ccccc1 [Example 536, 6-[7-(2-cyclopropyl-1H-imidazo[4,5-b]pyridin-6-yl)-2,3-dihydro-1,4-benzoxazepin-4(5H)-yl]-N,5-dimethyl-N-[(1S)-1-phenylethyl]pyrimidin-4-amine] | 6.60 to 7.30 |
| CC[C@H]1CCc2c(ncnc2N2CCOc3ccc(-c4cnc5nc(N)[nH]c5c4)cc3C2)C1 [Example 537, 6-{4-[(7S)-7-ethyl-5,6,7,8-tetrahydroquinazolin-4-yl]-2,3,4,5-tetrahydro-1,4-benzoxazepin-7-yl}-1H-imidazo[4,5-b]pyridin-2-amine] | ≥ 8.00 |
| CCNc1nc2ccc(-c3ccc4c(c3)CN(c3nc(C)nc(Nc5ccccc5)c3C)CCO4)cc2[nH]1 [Example 538, 6-{4-[2,5-dimethyl-6-(phenylamino)pyrimidin-4-yl]-2,3,4,5-tetrahydro-1,4-benzoxazepin-7-yl}-N--ethyl-1H-benzimidazol-2-amine] | 6.60 to 7.30 |
| COc1ccc2c(N3CCOc4ccc(-c5ccc6nc(N)[nH]c6c5)cc4C3)nc(C)nc2c1 [Example 539, 6-{4-[2-methyl-7-(methyloxy)quinazolin-4-yl]-2,3,4,5-tetrahydro-1,4-benzoxazepin-7-yl}-1H-benzimidazol-2-amine] | 6.60 to 7.30 |
| Cc1c(Nc2ccccc2)ncnc1N1CCOc2ccc(-c3cnc4nc(N)[nH]c4c3)cc2C1 [Example 540, 6-{4-[5-methyl-6-(phenylamino)pyrimidin-4-yl]-2,3,4,5-tetrahydro-1,4-benzoxazepin-7-yl}-1H-imidazo[4,5-b]pyridin-2-amine] | 7.30 to 8.00 |
| c1cc(N2CCOc3ccc(-c4ccc5nc[nH]c5c4)cc3C2)ncn1 [Example 541, 7-(1H-benzimidazol-6-yl)-4-pyrimidin-4-yl-2,3,4,5-tetrahydro-1,4-benzoxazepine] | ≤ 5.70 |
| COc1ccc2c(N3CCOc4ccc(-c5cnc6nc[nH]c6c5)cc4C3)nc(C)nc2c1 [Example 542, 7-(1H-imidazo[4,5-b]pyridin-6-yl)-4-[2-methyl-7-(methyloxy)quinazolin-4-yl]-2,3,4,5-tetrahydro-1,4-benzoxazepine] | 6.60 to 7.30 |
| c1cc(N2CCOc3ccc(-c4cnc5nc[nH]c5c4)cc3C2)ncn1 [Example 543, 7-(1H-imidazo[4,5-b]pyridin-6-yl)-4-pyrimidin-4-yl-2,3,4,5-tetrahydro-1,4-benzoxazepine] | 5.70 to 6.00 |
| Cc1nc2c(c(N3CCOc4ccc(-c5cnc6nc(C7CC7)[nH]c6c5)cc4C3)n1)CC(C)(C)CC2 [Example 544, 7-(2-cyclopropyl-1H-imidazo[4,5-b]pyridin-6-yl)-4-(2,6,6-trimethyl-5,6,7,8-tetrahydroquinazolin-4-yl)-2,3,4,5-tetrahydro-1,4-benzoxazepine] | ≥ 8.00 |
| CC1(C)C=Cc2ncnc(N3CCOc4ccc(-c5cnc6nc(C7CC7)[nH]c6c5)cc4C3)c2C1 [Example 545, 7-(2-cyclopropyl-1H-imidazo[4,5-b]pyridin-6-yl)-4-(6,6-dimethyl-5,6-dihydroquinazolin-4-yl)-2,3,4,5-tetrahydro-1,4-benzoxazepine] | ≥ 8.00 |
| C[C@H]1CCc2c(ncnc2N2CCOc3ccc(-c4cnc5nc(C6CC6)[nH]c5c4)cc3C2)C1 [Example 546, 7-(2-cyclopropyl-1H-imidazo[4,5-b]pyridin-6-yl)-4-[(7S)-7-methyl-5,6,7,8-tetrahydroquinazolin-4-yl]-2,3,4,5-tetrahydro-1,4-benzoxazepine] | 6.60 to 7.30 |
| Cc1nc(C)c(CC2CC2)c(N2CCOc3ccc(-c4cnc5nc(C6CC6)[nH]c5c4)cc3C2)n1 [Example 547, 7-(2-cyclopropyl-1H-imidazo[4,5-b]pyridin-6-yl)-4-[5-(cyclopropylmethyl)-2,6-dimethylpyrimidin-4-yl]-2,3,4,5-tetrahydro-1,4-benzoxazepine] | 7.30 to 8.00 |
| CCc1nc2ncc(-c3ccc4c(c3)CN(c3nc(C)nc5c3CC(C)(C)CC5)CCO4)cc2[nH]1 [Example 548, 7-(2-ethyl-1H-imidazo[4,5-b]pyridin-6-yl)-4-(2,6,6-trimethyl-5,6,7,8-tetrahydroquinazolin-4-yl)-2,3,4,5-tetrahydro-1,4-benzoxazepine] | ≥ 8.00 |
| Cc1nc2c(c(N3CCOc4ccc(-c5cnc6nc(C)[nH]c6c5)cc4C3)n1)CC(C)(C)CC2 [Example 550, 7-(2-methyl-1H-imidazo[4,5-b]pyridin-6-yl)-4-(2,6,6-trimethyl-5,6,7,8-tetrahydroquinazolin-4-yl)-2,3,4,5-tetrahydro-1,4-benzoxazepine] | ≥ 8.00 |
| Cc1nc2ncc(-c3ccc4c(c3)CN(c3ncnc(N5CCOCC5)c3C)CCO4)cc2[nH]1 [Example 551] | 6.00 to 6.60 |
| CC1=C(C)C(C)(C)Cc2c1ncnc2N1CCOc2ccc(-c3cnc4nc(C)[nH]c4c3)cc2C1 [Example 552, 7-(2-methyl-1H-imidazo[4,5-b]pyridin-6-yl)-4-(6,6,7,8-tetramethyl-5,6-dihydroquinazolin-4-yl)-2,3,4,5-tetrahydro-1,4-benzoxazepine] | ≥ 8.00 |
| CC1=Cc2ncnc(N3CCOc4ccc(-c5cnc6nc(C)[nH]c6c5)cc4C3)c2CC1(C)C [Example 553] | ≥ 8.00 |
| CC1=CC(C)(C)Cc2c1ncnc2N1CCOc2ccc(-c3cnc4nc(C)[nH]c4c3)cc2C1 [Example 554, 7-(2-methyl-1H-imidazo[4,5-b]pyridin-6-yl)-4-(6,6,8-trimethyl-5,6-dihydroquinazolin-4-yl)-2,3,4,5-tetrahydro-1,4-benzoxazepine] | ≥ 8.00 |
| Cc1nc2ncc(-c3ccc4c(c3)CN(c3ncnc5c3CC(C)CC5)CCO4)cc2[nH]1 (centres unmarked) [Example 555, 7-(2-methyl-1H-imidazo[4,5-b]pyridin-6-yl)-4-(6-methyl-5,6,7,8-tetrahydroquinazolin-4-yl)-2,3,4,5-tetrahydro-1,4-benzoxazepine] | ≥ 8.00 |
| Cc1nc2ncc(-c3ccc4c(c3)CN(c3ncnc5c3CCC(C)C5)CCO4)cc2[nH]1 (centres unmarked) [Example 556, 7-(2-methyl-1H-imidazo[4,5-b]pyridin-6-yl)-4-(7-methyl-5,6,7,8-tetrahydroquinazolin-4-yl)-2,3,4,5-tetrahydro-1,4-benzoxazepine] | 7.30 to 8.00 |
| Cc1nc2ncc(-c3ccc4c(c3)CN(c3ncnc5c3CCC(C)(c3ccccc3)C5)CCO4)cc2[nH]1 (centres unmarked) [Example 558, 7-(2-methyl-1H-imidazo[4,5-b]pyridin-6-yl)-4-(7-methyl-7-phenyl-5,6,7,8-tetrahydroquinazolin-4-yl)-2,3,4,5-tetrahydro-1,4-benzoxazepine] | ≥ 8.00 |
| Cc1nc2ncc(-c3ccc4c(c3)CN(c3ncnc5c3CC[C@@H](C)C5)CCO4)cc2[nH]1 [Example 559, 7-(2-methyl-1H-imidazo[4,5-b]pyridin-6-yl)-4-[(7R)-7-methyl-5,6,7,8-tetrahydroquinazolin-4-yl]-2,3,4,5-tetrahydro-1,4-benzoxazepine] | 7.30 to 8.00 |
